Measured values as given in patent publication US20070197957A1, “Implantable sensors, implantable pumps and anti-scarring drug combinations” (priority 2005, published 2007).
Entries after “also recorded” stand apart in the source; their conditions may differ.

Experiments:
[1] = water; cited from earlier work
[2] = 200 mg/day orally; cited from earlier work
[3] = tested on: AP-1 DNA binding activity; test: IL-1 induced AP-1 DNA binding activity, gel mobility shift assay with chondrocyte extracts; format: cell-based; details: chondrocyte lysates, pretreated with paclitaxel 10^−7 to 10^−5 M for 24 hours
Experimental: Binding activity was assayed with a radiolabeled human AP-1 sequence probe and gel mobility shift assay. Extracts from chondrocytes untreated or treated with various amounts of paclitaxel (10^−7 to 10^−5M) followed by IL-1β (20 ng/ml) were incubated with excess probe on ice for 30 minutes, followed by non-denaturing gel electrophoresis. The “com” lane contains excess unlabeled AP-1 oligonucleotide. The results shown are representative of three independent experiments.

collagenase (MMP-1) mRNA = test: IL-1 induced MMP-1 (collagenase) mRNA expression in chondrocytes, Northern blot
AP-1 = test: IL-1 induced AP-1 binding activity in chondrocyte lysates; format: cell-based; details: lysates from chondrocytes pretreated with the agent (FIG. 1C)
[4] = tested on: collagenase and stromelysin; test: IL-1 induced collagenase and stromelysin RNA levels in chondrocytes; format: cell-based; details: pretreatment (FIG. 1D)
[5] = tested on: Chick Chorioallantoic Membrane (CAM) vasculature; test: Chick chorioallantoic membrane (CAM) angiogenesis assay; format: in vivo; details: for Inhibition/n: 48 hours exposure
Experimental: Fertilized, domestic chick embryos were incubated for 3 days prior to shell-less culturing. In this procedure, the egg contents were emptied by removing the shell located around the air space. The interior shell membrane was then severed and the opposite end of the shell was perforated to allow the contents of the egg to gently slide out from the blunted end. The egg contents were emptied into round-bottom sterilized glass bowls and covered with petri dish covers. These were then placed into an incubator at 90% relative humidity and 3% CO2 and incubated for 3 days.
Ten microliter aliquots of this solution were dried on parafilm for 1 hour forming disks 2 mm in diameter. The dried disks containing paclitaxel were then carefully placed at the growing edge of each CAM at day 6 of incubation. Controls were obtained by placing paclitaxel-free methylcellulose disks on the CAMs over the same time course. After a 2 day exposure (day 8 of incubation) the vasculature was examined with the aid of a stereomicroscope. Liposyn II, a white opaque solution, was injected into the CAM to increase the visibility of the vascular details. The vasculature of unstained, living embryos were imaged using a Zeiss stereomicroscope which was interfaced with a video camera (Dage-MTI Inc., Michigan City, Ind.). […] Image negatives were then made on a graphics recorder (Model 3000; Matrix Instruments, Orangeburg, N.Y.).
The membranes of the 8 day-old shell-less embryo were flooded with 2% glutaraldehyde in 0.1M sodium cacodylate buffer; additional fixative was injected under the CAM. After 10 minutes in situ, the CAM was removed and placed into fresh fixative for 2 hours at room temperature. The tissue was then washed overnight in cacodylate buffer containing 6% sucrose. The areas of interest were postfixed in 1% osmium tetroxide for 1.5 hours at 4° C. The tissues were then dehydrated in a graded series of ethanols, solvent exchanged with propylene oxide, and embedded in Spurr resin. Thin sections were cut with a diamond knife, placed on copper grids, stained, and examined in a Joel 1200EX electron microscope. Similarly, […] sections were cut and stained with […] for light microscopy.
At day 11 of development, chick embryos were used for the corrosion casting technique. Mercox resin (Ted Pella, Inc., Redding, Calif.) was injected into the CAM vasculature using a 30-gauge hypodermic needle. […] After injection, the plastic was allowed to sit in situ for an hour at room temperature and then overnight in an oven at 65° C. The CAM was then placed in 50% aqueous solution of sodium hydroxide to digest all organic components.
This imaging setup was used at a magnification of 160× which permitted the direct visualization of blood cells within the capillaries; thereby blood flow in areas of interest may be easily assessed and recorded. For this study, the inhibition of angiogenesis was defined as an area of the CAM (measuring 2-6 mm in diameter) lacking a capillary network and vascular blood flow. Throughout the experiments, avascular zones were assessed on a 4 point avascular gradient (Table 11). This scale represents the degree of overall inhibition with maximal inhibition represented as a 3 on the avascular gradient scale.

stromelysin (MMP-3) mRNA = test: IL-1 induced MMP-3 (stromelysin) mRNA expression in chondrocytes, Northern blot
[6] = tested on: AP-1 transcriptional activity; test: IL-1 stimulated AP-1 transcriptional activity (AP-1 driven CAT reporter gene) in transfected chondrocytes; format: cell-based; details: IL-1 50 ng/ml, 24 hours, paclitaxel 10^−7 to 10^−5 M
Text: The results shown are representative of three independent experiments.

[7] = tested on: Primary human smooth muscle cells; test: Smooth muscle cell migration assay (Boyden chamber, rhPDGF-BB chemotaxis); format: cell-based; details: chemotaxis to rhPDGF-BB 10 ng/ml, 4 hours
Experimental: Primary human smooth muscle cells were starved of serum in smooth muscle cell basal media containing insulin and human basic fibroblast growth factor (bFGF) for 16 hours prior to the assay. For the migration assay, cells were trypsinized to remove cells from flasks, washed with migration media and diluted to a concentration of 2-2.5×10^5 cells/ml in migration media. […] A 100 μL volume of smooth muscle cells (approximately 20,000-25,000 cells) was added to the top of a Boyden chamber assembly (Chemicon QCM CHEMOTAXIS 96-well migration plate). To the bottom wells, the chemotacetic agent, recombinant human platelet derived growth factor (rhPDGF-BB) was added at a concentration of 10 ng/ml in a total volume of 150 μL. Paclitaxel was prepared in DMSO at a concentration of 10^−2 M and serially diluted 10-fold to give a range of stock concentrations (10^−8 M to 10^−2 M). […]
At the end of the 4 hour period, cells in the top chamber were discarded and the smooth muscle cells attached to the underside of the filter were detached for 30 minutes at 37° C. in Cell Detachment Solution (Chemicon). […] Relative fluorescence units from triplicate wells were averaged after subtracting background fluorescence (control chamber without chemoattractant) and average number of cells migrating was obtained from a standard curve of smooth muscle cells serially diluted from 25,000 cells/well down to 98 cells/well.

[8] = tested on: mast cells and eosinophil
[9] = in vivo; cited from earlier work
[10] = 10^−5 M paclitaxel, 24 hours pretreatment
[11] = chondrocytes pretreated with paclitaxel for 24 hours
[12] = within 48 hours, depending on concentration

SMILES: CC(=O)N1CCN(c2ccc(OCC3COC(Cn4ccnc4)(c4ccc(Cl)cc4Cl)O3)cc2)CC1 (stereo not drawn) [ketoconazole]
- solubility in water [1]: essentially insoluble in water
- serum concentration [2]: about 3.2 micrograms

SMILES: CC(=O)O[C@H]1C(=O)[C@@]2(C)[C@H]([C@H](OC(=O)c3ccccc3)[C@]3(O)C[C@H](OC(=O)[C@H](O)[C@@H](NC(=O)c4ccccc4)c4ccccc4)C(C)=C1C3(C)C)[C@]1(OC(C)=O)CO[C@@H]1C[C@@H]2O [paclitaxel]
- IL-1 induced AP-1 binding activity to oligonucleotides [3]: decreased
- inhibition of collagenase mRNA expression (collagenase (MMP-1) mRNA; [10]): complete inhibition
- collagenase mRNA levels, IL-1 induced (collagenase (MMP-1) mRNA; [11]): significantly reduced
- concentration inhibiting collagenase expression in vitro (collagenase (MMP-1) mRNA; chondrocytes, IL-1 induced): 10^−6 M
- IL-1 induced binding activity (AP-1): decreased
- IL-1 induction of collagenase and stromelysin RNA levels [4]: inhibited
- Inhibition/n ([5]; 0.25 ug in methylcellulose (10 ul) disk): 2/11
- Inhibition/n ([5]; 0.5 ug in methylcellulose (10 ul) disk): 6/11
- Inhibition/n ([5]; 1 ug in methylcellulose (10 ul) disk): 6/15
- Inhibition/n ([5]; 5 ug in methylcellulose (10 ul) disk): 20/27
- Inhibition/n ([5]; 10 ug in methylcellulose (10 ul) disk): 16/21
- Inhibition/n ([5]; 30 ug in methylcellulose (10 ul) disk): 31/31
- angiogenesis in the CAM ([5]; 48 hours after application to the CAM): inhibited
- avascular gradient scale, maximal avascular zone [5, 12]: 3
- maximal avascular zone diameter [5, 12]: 6 mm
- inhibition of stromelysin mRNA expression (stromelysin (MMP-3) mRNA; [10]): complete inhibition
- stromelysin mRNA levels, IL-1 induced (stromelysin (MMP-3) mRNA; [11]): significantly reduced
- concentration inhibiting stromelysin expression in vitro (stromelysin (MMP-3) mRNA; chondrocytes, IL-1 induced): 10^−6 M
- IL-1 induced AP-1 reporter gene CAT activity [6]: decreased CAT activity in a concentration dependent manner; also recorded: reduced IL-1 induced AP-1 reporter gene CAT activity
- IC50 [7]: 0.76 nM

SMILES: CCOC(=O)N1CCC(=C2c3ccc(Cl)cc3CCc3cccnc32)CC1 [loratadine]
- effect on mast cells and eosinophil activation [8]: inhibits

SMILES: CN(C)/N=N/c1[nH]cnc1C(N)=O [Dacarbazine, dacarbazine]
- absorption from the GI tract [9]: poorly absorbed
